Test results taken from US11078228B2, “Ectonucleotidase inhibitors and methods of use thereof” (Calithera Biosciences, Inc., priority 2018, dated 2021).

molecular target: recombinant CD73 (Homo sapiens (Human), UniProt P21589); assay: Assay 2: Inhibition of the CD73 enzyme in vitro (0.05 nM CD73, 1 hour 37° C., Malachite Green); format: biochemical; conditions: 0.05 nM CD73, 50 μM AMP, 1 hour at 37° C.
Procedure, shortened: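 Soluble recombinant CD73 reactions ran 1 hour at 37° C. Malachite Green was then added, and absorbance at 630 nm was read after 5 min at room temperature. Inorganic phosphate was quantified from a phosphate standard curve.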

recombinant CD73, sequence (P21589 27-547): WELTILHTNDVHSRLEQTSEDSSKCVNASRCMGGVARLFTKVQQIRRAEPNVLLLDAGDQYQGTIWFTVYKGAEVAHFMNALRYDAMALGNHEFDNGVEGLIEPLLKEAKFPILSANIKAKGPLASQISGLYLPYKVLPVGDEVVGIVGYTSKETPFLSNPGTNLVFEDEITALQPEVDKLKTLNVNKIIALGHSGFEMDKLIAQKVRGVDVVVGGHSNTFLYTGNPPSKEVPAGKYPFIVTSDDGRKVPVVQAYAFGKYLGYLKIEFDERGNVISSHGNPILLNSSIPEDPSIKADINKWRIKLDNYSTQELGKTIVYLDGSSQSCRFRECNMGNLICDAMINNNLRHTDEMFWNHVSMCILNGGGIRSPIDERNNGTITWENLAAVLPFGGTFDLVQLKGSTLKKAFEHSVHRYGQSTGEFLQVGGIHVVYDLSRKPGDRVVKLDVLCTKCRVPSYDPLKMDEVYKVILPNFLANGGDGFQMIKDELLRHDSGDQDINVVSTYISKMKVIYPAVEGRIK

In order of falling IC50:
1. C#C[C@@]1(O)[C@@H](COC(Cc2cc(C)on2)(C(=O)O)C(=O)O)O[C@@H](n2cnc3c(NCc4ccc(F)cc4)nc(Cl)nc32)[C@@H]1O [Example 111, 2-(((2R,3S,4R,5R)-5-(2-chloro-6-((4-fluorobenzyl)amino)-9H-purin-9-yl)-3-ethynyl-3,4-dihydroxytetrahydrofuran-2-yl)methoxy)-2-((5-methylisoxazol-3-yl)methyl)malonic acid]  2670 nM
2. C#C[C@@]1(O)[C@@H](COC(Cc2nc3ccccc3s2)(C(=O)O)C(=O)O)O[C@@H](n2cnc3c(NCc4ccc(F)cc4)nc(Cl)nc32)[C@@H]1O [Example 112, 2-(benzo[d]thiazol-2-ylmethyl)-2-(((2R,3S,4R,5R)-5-(2-chloro-6-((4-fluorobenzyl)amino)-9H-purin-9-yl)-3-ethynyl-3,4-dihydroxytetrahydrofuran-2-yl)methoxy)malonic acid]  1360 nM
3. C#C[C@@]1(O)[C@@H](COC(Cc2ccccc2)(C(=O)O)C(=O)O)O[C@@H](n2cnc3c(N)nc(C(C)O)nc32)[C@@H]1O (stereo partly drawn) [Example 161, 2-(((2R,3S,4R,5R)-5-(6-amino-2-(1-hydroxyethyl)-9H-purin-9-yl)-3-ethynyl-3,4-dihydroxytetrahydrofuran-2-yl)methoxy)-2-benzylmalonic acid]  561 nM
4. C#C[C@@]1(O)[C@@H](COC(Cc2ccccc2)(C(=O)O)C(=O)OCC)O[C@@H](n2cnc3c(NCc4ccncc4)nc(Cl)nc32)[C@@H]1O (stereo partly drawn) [Example 109, 2-benzyl-2-(((2R,3S,4R,5R)-5-(2-chloro-6-((pyridin-4-ylmethyl)amino)-9H-purin-9-yl)-3-ethynyl-3,4-dihydroxytetrahydrofuran-2-yl)methoxy)-3-ethoxy-3-oxopropanoic acid]  284 nM
5. C#C[C@@]1(O)[C@@H](COC(Cc2ccsc2)(C(=O)O)c2cscn2)O[C@@H](n2cnc3c(NC(C)C)nc(Cl)nc32)[C@@H]1O (stereo partly drawn) [Example 169, 2-(((2R,3S,4R,5R)-5-(2-chloro-6-(isopropylamino)-9H-purin-9-yl)-3-ethynyl-3,4-dihydroxytetrahydrofuran-2-yl)methoxy)-2-(thiazol-4-yl)-3-(thiophen-3-yl)propanoic acid]  162 nM
6. C#C[C@@H]1[C@@H](O)[C@H](n2cnc3c(N)nc(Cl)nc32)O[C@@H]1COC(Cc1ccccc1)(C(=O)O)C(=O)O [Compound 2, 2-(((2S,3R,4R,5R)-5-(6-amino-2-chloro-9H-purin-9-yl)-3-ethynyl-4-hydroxytetrahydrofuran-2-yl)methoxy)-2-benzylmalonic acid]  147 nM
7. C#C[C@@]1(O)[C@@H](CO[C@@H](Cc2ccc(N3CCCNC3=O)cc2)C(=O)O)O[C@@H](n2cnc3c(N)nc(Cl)nc32)[C@@H]1O (single isomer, unassigned) [Example 167]  139 nM
8. C#C[C@@]1(O)[C@@H](COC(Cc2ccc(N3CCCNC3=O)cc2)(C(=O)O)C(=O)O)O[C@@H](n2ccc(N)nc2=O)[C@@H]1O [Example 135, 2-(((2R,3S,4R,5R)-5-(4-amino-2-oxopyrimidin-1(2H)-yl)-3-ethynyl-3,4-dihydroxytetrahydrofuran-2-yl)methoxy)-2-(4-(2-oxotetrahydropyrimidin-1 (2H)-yl)benzyl)malonic acid]  91 nM
9. C#C[C@@]1(O)[C@@H](CO[C@](Cc2ccccc2)(C(=O)O)c2cscn2)O[C@@H](n2cnc3c(NC(C)C)nc(Cl)nc32)[C@@H]1O (single isomer, unassigned) [Example 170]  8 nM
10. C#C[C@@]1(O)[C@@H](COC(Cc2ccccc2)(C(=O)O)C(=O)O)O[C@@H](n2cnc3c(N[C@@H](C)CO)nc(Cl)nc32)[C@@H]1O [Example 95, 2-benzyl-2-(((2R,3S,4R,5R)-5-(2-chloro-6-(((S)-1-hydroxypropan-2-yl)amino)-9H-purin-9-yl)-3-ethynyl-3,4-dihydroxytetrahydrofuran-2-yl)methoxy)malonic acid]  7 nM
11. C#C[C@@]1(O)[C@@H](COC(Cc2cccs2)(C(=O)O)C(=O)O)O[C@@H](n2cnc3c(N)nc(Cl)nc32)[C@@H]1O [Example 128, 2-(((2R,3S,4R,5R)-5-(6-amino-2-chloro-9H-purin-9-yl)-3-ethynyl-3,4-dihydroxytetrahydrofuran-2-yl)methoxy)-2-(thiophen-2-ylmethyl)malonic acid]  6 nM
12. C#C[C@@]1(O)[C@@H](COC(Cc2nccs2)(C(=O)O)C(=O)O)O[C@@H](n2cnc3c(N)nc(Cl)nc32)[C@@H]1O [Example 142, 2-(((2R,3S,4R,5R)-5-(6-amino-2-chloro-9H-purin-9-yl)-3-ethynyl-3,4-dihydroxytetrahydrofuran-2-yl)methoxy)-2-(thiazol-2-ylmethyl)malonic acid]  5 nM
13. C#C[C@@]1(O)[C@@H](COC(Cc2ccnc(Cl)c2)(C(=O)O)C(=O)O)O[C@@H](n2cnc3c(N)nc(Cl)nc32)[C@@H]1O [Compound 5, 2-(((2R,3S,4R,5R)-5-(6-amino-2-chloro-9H-purin-9-yl)-3-ethynyl-3,4-dihydroxytetrahydrofuran-2-yl)methoxy)-2-((2-chloropyridin-4-yl)methyl)malonic acid]  4 nM
14. C#C[C@@]1(O)[C@@H](COC(Cc2ccccc2)(C(=O)O)C(=O)O)O[C@@H](n2cnc3c(N(C)C(C)C)nc(Cl)nc32)[C@@H]1O [Example 82, 2-benzyl-2-(((2R,3S,4R,5R)-5-(2-chloro-6-(isopropyl(methyl)amino)-9H-purin-9-yl)-3-ethynyl-3,4-dihydroxytetrahydrofuran-2-yl)methoxy)malonic acid]  2 nM
15. C#C[C@@]1(O)[C@@H](COC(Cc2ccccc2)(C(=O)O)C(=O)O)O[C@@H](n2cnc3c(NCc4cccc(F)c4)nc(Cl)nc32)[C@@H]1O [Example 85, 2-benzyl-2-(((2R,3S,4R,5R)-5-(2-chloro-6-((3-fluorobenzyl)amino)-9H-purin-9-yl)-3-ethynyl-3,4-dihydroxytetrahydrofuran-2-yl)methoxy)malonic acid]  2 nM
16. C#C[C@@]1(O)[C@@H](COC(Cc2ccccc2)(C(=O)O)C(=O)O)O[C@@H](n2cnc3c(N4CCCCCC4)nc(Cl)nc32)[C@@H]1O [Example 80, 2-(((2R,3S,4R,5R)-5-(6-(azepan-1-yl)-2-chloro-9H-purin-9-yl)-3-ethynyl-3,4-dihydroxytetrahydrofuran-2-yl)methoxy)-2-benzylmalonic acid]  2 nM
17. C#C[C@@]1(O)[C@@H](COC(Cc2ccccc2)(C(=O)O)C(=O)O)O[C@@H](n2cnc3c(NCCO)nc(Cl)nc32)[C@@H]1O [Example 97, 2-benzyl-2-(((2R,3S,4R,5R)-5-(2-chloro-6-((2-hydroxyethyl)amino)-9H-purin-9-yl)-3-ethynyl-3,4-dihydroxytetrahydrofuran-2-yl)methoxy)malonic acid]  2 nM
18. C#C[C@@]1(O)[C@@H](COC(Cc2ccccc2)(C(=O)O)C(=O)O)O[C@@H](n2cnc3c(N4CCC4)nc(Cl)nc32)[C@@H]1O [Example 88, 2-(((2R,3S,4R,5R)-5-(6-(azetidin-1-yl)-2-chloro-9H-purin-9-yl)-3-ethynyl-3,4-dihydroxytetrahydrofuran-2-yl)methoxy)-2-benzylmalonic acid]  1.2 nM
19. C#C[C@@]1(O)[C@@H](COC(Cc2ccccc2)(C(=O)O)C(=O)O)O[C@@H](n2cnc3c(N4CC(CO)C4)nc(Cl)nc32)[C@@H]1O [Example 46, 2-benzyl-2-(((2R,3S,4R,5R)-5-(2-chloro-6-(3-(hydroxymethyl)azetidin-1-yl)-9H-purin-9-yl)-3-ethynyl-3,4-dihydroxytetrahydrofuran-2-yl)methoxy)malonic acid]  1 nM
20. C#C[C@@]1(O)[C@@H](COC(Cc2ccc(N3CCCNC3=O)cc2)(C(=O)O)c2cscn2)O[C@@H](n2cnc3c(N)nc(Cl)nc32)[C@@H]1O (stereo partly drawn) [Example 175, 2-(((2R,3S,4R,5R)-5-(6-amino-2-chloro-9H-purin-9-yl)-3-ethynyl-3,4-dihydroxytetrahydrofuran-2-yl)methoxy)-3-(4-(2-oxotetrahydropyrimidin-1 (2H)-yl)phenyl)-2-(thiazol-4-yl)propanoic acid]  1 nM
21. C#C[C@@]1(O)[C@@H](COC(Cc2ccccc2)(C(=O)O)C(=O)O)O[C@@H](n2cnc3c(NCc4ccc(F)cc4)nc(Cl)nc32)[C@@H]1O [Example 68, 2-benzyl-2-(((2R,3S,4R,5R)-5-(2-chloro-6-((4-fluorobenzyl)amino)-9H-purin-9-yl)-3-ethynyl-3,4-dihydroxytetrahydrofuran-2-yl)methoxy)malonic acid]  0.8 nM
22. C#C[C@@]1(O)[C@@H](COC(Cc2ccccc2)(C(=O)O)C(=O)O)O[C@@H](n2cnc3c(N(C)C4CCC4)nc(Cl)nc32)[C@@H]1O [Example 81, 2-benzyl-2-(((2R,3S,4R,5R)-5-(2-chloro-6-(cyclobutyl(methyl)amino)-9H-purin-9-yl)-3-ethynyl-3,4-dihydroxytetrahydrofuran-2-yl)methoxy)malonic acid]  0.4 nM
23. C#C[C@@]1(O)[C@@H](COC(Cc2ccccc2)(C(=O)O)C(=O)O)O[C@@H](n2cnc3c(N(C)CC)nc(Cl)nc32)[C@@H]1O [Example 66, 2-benzyl-2-(((2R,3S,4R,5R)-5-(2-chloro-6-(ethyl(methyl)amino)-9H-purin-9-yl)-3-ethynyl-3,4-dihydroxytetrahydrofuran-2-yl)methoxy)malonic acid]  0.3 nM
24. C#C[C@@]1(O)[C@@H](COC(Cc2ccc(-c3cccnc3OC)cc2)(C(=O)O)C(=O)O)O[C@@H](n2cnc3c(N)nc(Cl)nc32)[C@@H]1O [Example 22, 2-(((2R,3S,4R,5R)-5-(6-amino-2-chloro-9H-purin-9-yl)-3-ethynyl-3,4-dihydroxytetrahydrofuran-2-yl)methoxy)-2-(4-(2-methoxypyridin-3-yl)benzyl)malonic acid]  0.3 nM
25. C#C[C@@]1(O)[C@@H](COC(Cc2ccc(-c3cccn(CCC)c3=O)cc2)(C(=O)O)C(=O)O)O[C@@H](n2cnc3c(N)nc(Cl)nc32)[C@@H]1O [Example 19, 2-(((2R,3S,4R,5R)-5-(6-amino-2-chloro-9H-purin-9-yl)-3-ethynyl-3,4-dihydroxytetrahydrofuran-2-yl)methoxy)-2-(4-(2-oxo-1-propy-1,2-dihydropyridin-3-yl)benzyl)malonic acid]  0.2 nM
